Measurements: paper PMC8426238, “Synthesis and preclinical evaluation of [^11C]MTP38 as a novel PET ligand for phosphodiesterase 7 in the brain” (European Journal of Nuclear Medicine and Molecular Imaging, 2021)

Legend:
PDE7 [1] = experiment: In vitro autoradiography of rat brain sections with [^11C]MTP38; type: binding, Sprague-Dawley rats
Protocol: (§1) In vitro autoradiography was performed using 20-μm-thick fresh-frozen brain sections derived from Sprague-Dawley rats and rhesus monkeys. The sections were preincubated for 10 min in 50 mM Tris-HCl buffer (pH 7.4) at room temperature. These samples were then incubated for 60 min at room temperature in fresh buffer containing [^11C]MTP38 (2 nM) with or without unlabeled MTP38 (10 μM), MTP-X (4 μM), or MT-3014 (40 nM). The concentrations of MTP-X and MT-3014 were more than 400-fold of reported IC50 values of these agents. After the incubation, the brain sections were immersed twice in cold buffer for 3 min, dipped in cold distilled water for 10 s, and dried with warm airflow. Then the sections were contacted with imaging plates (BAS-MS2025, Fujifilm, Tokyo, Japan) for 60 min. The imaging plates were scanned with an imaging plate reader (BAS5000, Fujifilm, Tokyo, Japan), and the images were analyzed with the MultiGuage software (ver. 3.0, Fujifilm, Tokyo, Japan).

PDE7 [2] = experiment: In vitro autoradiography of monkey brain sections with [^11C]MTP38; type: binding, rhesus monkeys; details: 2 nM
Protocol: as §1

PDE7 [3] = experiment: PET imaging in rats with [^11C]MTP38; type: in vivo, Wistar rats
Protocol: Each rat was scanned multiple times with a shortest interval of 1 month. Rats were anesthetized with isoflurane (3% for induction and 2% for maintenance) throughout the experiment. The tail vein was cannulated for radioligand injection. Body temperature was maintained at around 37 °C using a heating pad. The head of the rat was fixed at the center of the field of view of an animal PET scanner (microPET Focus220, Siemens Medical Solutions, Malvern, USA). A 90-min list-mode data acquisition was started simultaneously with intravenous administration of [^11C]MTP38. The list-mode data were sorted into 3D sinograms, which were then Fourier-rebinned into 2D sinograms (frames: 10 s × 6, 30 s × 8, 1 min × 5, 2 min × 10, and 5 min × 12). The sinograms were reconstructed with a filtered back-projection algorithm using a Hanning filter with a cut-off at the Nyquist frequency (0.5 mm^−1).
Along with baseline scans, we conducted blockade PET experiments according to the following pretreatment protocols: (1) unlabeled MTP38 (0.5 mg/kg) was administered intravenously at 2 min before radioligand injection, and (2) MTP-X (100 mg/kg) was administered orally at 1 h before radioligand injection.
PET images were co-registered manually onto the magnetic resonance (MR) template image. Details of co-registration were described elsewhere. Regions of interest (ROIs) were placed on the striatum as a target region and on the cerebellum (gray matter) as a reference region according to the expression of PDE7B mRNA in the rat brain [6], and time-activity curves (TACs) were generated for each ROI. Radioactivity in the brain was normalized with injected radioactivity and body weight, and expressed as standardized uptake value (SUV). Then the SUV ratio between the striatum and cerebellum was obtained to estimate the radioligand binding in the target region in baseline and blockade experiments.

PDE7 [4] = experiment: PET imaging in monkeys with [^11C]MTP38; type: in vivo, rhesus monkeys; details: for Striatal BPND: MRTMo, cerebellar reference
Protocol: Each monkey underwent multiple PET scans with intervals longer than 2 weeks. The monkeys were given an intramuscular injection of 0.04 mg/kg of atropine sulfate at 1.5 h before radioligand injection. They were subsequently anesthetized with an intramuscular injection of ketamine (5 mg/kg) and xylazine (0.5 mg/kg), intubated, and kept anesthetized with 1–2% isoflurane. Heart rate, electrocardiogram, body temperature, blood oxygen saturation level, and end-tidal CO2 were monitored during the PET scan. The monkeys were placed on a bed in a supine position, and the head was fixed at the center of the field of view of a microPET scanner Focus220. A transmission scan was performed for about 20 min using a ^68Ge-^68Ga point source. A 90-min list-mode data acquisition was started simultaneously with intravenous administration of [^11C]MTP38 via a saphenous vein cannula. All list-mode data were sorted into 3D sinograms, which were then Fourier-rebinned into 2D sinograms (frames: 10 s × 6, 30 s × 8, 1 min × 5, 2 min × 10, and 5 min × 12). The images were corrected for attenuation and reconstructed with a filtered back-projection algorithm using a Hanning filter with a cut-off at the Nyquist frequency (0.5 mm^−1).
Along with baseline scans, we carried out blocking PET experiments according to the following pretreatment protocols: (1) unlabeled MTP38 was administered as an intravenous bolus (0.075 mg/kg) at 1 h before radioligand injection followed by continuous infusion at a rate of 0.3 mg/kg/h until the end of the PET scan, and (2) MTP-X (0.3–30 mg/kg) was administered orally at 2 or 6 h before radioligand injection.
(§2) PET scans for monkeys at baseline and following pretreatment with unlabeled MTP38, and 3, 10, 30 mg/kg of MTP-X were performed along with arterial blood sampling to obtain a metabolite-corrected input function. In total, 22 arterial blood samples were collected manually with heparinized syringes via a saphenous artery contralateral to the radioligand injection. Sampling was performed at 10, 20, 30, 40, 50, 60, 75, 90, 105, 120, 150, 180, and 210 s and at 4, 5, 10, 20, 30, 45, 60, 75, and 90 min after radioligand injection. Blood samples were then placed on ice and divided into two aliquots, one of which was centrifuged with a refrigerated centrifuge (15,000×g, 3 min, 4 °C) to obtain plasma.
PET images were co-registered onto the individual MR images. ROIs were placed on the prefrontal and medial frontal cortices, hippocampus, amygdala, striatum (caudate + putamen), nucleus accumbens, thalamus, cerebellum (gray matter), and brainstem. TACs in the baseline and blockade experiments were generated for each ROI.
Regional TACs were examined by several analytical methods to calculate the regional total distribution volume (VT), which represents the sum of non-specific and specific radioligand binding. Compartment model (1- or 2-tissue) and Logan’s graphical analyses were employed for describing the radioligand kinetics in the brain. The fractional blood volume was fixed at 0.05. For compartment model analyses, an optimal model was chosen on the basis of Akaike’s information criterion (AIC) and model selection criterion (MSC). For graphical analyses, an equilibration time t* was determined so that by the maximum error from the regression within the linear segment was considered to be 10% for each TAC. Time stability of VT was investigated by truncating the data duration stepwise from 90 min to 30 min. The VT values with or without pretreatment with a blocker were then compared. We also validated the use of the cerebellum as a reference tissue by this comparison, in addition to the autoradiographic findings, in monkey brain slices. The non-displaceable binding potential (BPND) was calculated by the original multilinear reference tissue model (MRTMO). t* was determined in the same manner as Logan’s graphical analysis. […]

[5] = Radiometabolite analysis of arterial plasma; type: in vivo, rhesus monkeys; details: monkey; 90 min after injection
Protocol: as §2
Radioactivity in blood and plasma was measured with an auto-gamma counter (wizard 2480, PerkinElmer, Waltham, MA, USA). […] An aliquot of supernatant (< 1 mL) was injected into an HPLC system (JASCO, Tokyo, Japan) equipped with a radioactivity detector (column: CAPCELL PAK AQ, 5 μm, 10 × 250 mm; column temperature: room temperature; mobile phase: 45% CH3CN; flow rate: 6.0 mL/min). The fraction of the parent [^11C]MTP38 was calculated as a ratio of the peak area of MTP38 to the total area of peaks found on the radiochromatograms. Then, an arterial input function was determined by quantifying the metabolite-corrected arterial plasma radioactivity concentration.

PDE7 [6] = system: PDE7; parameters: method as in PMID 26330158; details: living rodent brains; cited from earlier work
[7] = monkey, baseline, Logan's graphical analysis, means of two animals

With `C[C@@H]1CC[C@H](C)N(c2nnc3c(N)ncc([11C]#N)n23)C1` [[^11C]MTP38] as the compound, how does the “radioligand reactivity in the striatum” value (PDE7 [1]; 2 nM) read?
Its value is “high radioligand reactivity in the striatum”.

What about the “radioligand reactivity in the striatum” value (PDE7 [2]) of the same compound?
Its value is “high radioligand reactivity in the striatum”.

And the “striatum-to-cerebellum ratio of SUV” value (PDE7 [3]; baseline, plateau from 5 min)?
Its value is roughly 1.5.

What about the “SUV in the striatum and cerebellum at 90 min” value (PDE7 [3]; iv, 90 min) of the same compound?
The value was “below 1.0”.

What about the “peak SUV in the striatum and cerebellum” value (PDE7 [3]; iv, baseline) of the same compound?
Its value is “exceeding 4.0”.

What about the “time of SUV peak after injection” value (PDE7 [3]; iv, striatum and cerebellum) of the same compound?
The value was no more than 1 min.

What about the “Striatal BPND” value (PDE7 [4]; monkey #1, baseline) of the same compound?
Its value is 0.409.

And the “Striatal BPND” value (PDE7 [4]; monkey #2, baseline)?
Its value is 0.287.

And the “Regional VT, AMY (amygdala)” value (PDE7 [4]; [7])?
The value was 2.50 mL/cm^3.

And the “Regional VT, BS (brainstem)” value (PDE7 [4]; [7])?
Its value is 3.13 mL/cm^3.

What about the “Regional VT, CB (cerebellum)” value (PDE7 [4]; [7]) of the same compound?
Its value is 2.69 mL/cm^3.

And the “Regional VT, HIP (hippocampus)” value (PDE7 [4]; [7])?
The value was 2.38 mL/cm^3.

And the “Regional VT, MFC (medial frontal cortex)” value (PDE7 [4]; [7])?
The value was 3.27 mL/cm^3.

What about the “Regional VT, NAc (nucleus accumbens)” value (PDE7 [4]; [7]) of the same compound?
The value was 2.97 mL/cm^3.

What about the “Regional VT, PFC (prefrontal cortex)” value (PDE7 [4]; [7]) of the same compound?
The value was 2.93 mL/cm^3.

What about the “Regional VT, STR (striatum)” value (PDE7 [4]; [7]) of the same compound?
The value was 3.59 mL/cm^3.

And the “Regional VT, THA (thalamus)” value (PDE7 [4]; [7])?
Its value is 3.03 mL/cm^3.

And the “k3 (2-tissue compartment model)” value (PDE7 [4]; monkey, some ROIs including the striatum, model failed to estimate VT)?
The value was less than 0.0001 min⁻¹.

And the “maximal SUV in brain” value (PDE7 [4]; monkeys, iv)?
Its value is roughly 5.

What about the “time of brain radioactivity peak after injection” value (PDE7 [4]; monkeys, iv) of the same compound?
The value was 3 to 4 min.

And the “fraction of unmetabolized [^11C]MTP38 of total radioactivity in plasma” value [5]?
Its value is 27.2%.

For `Cc1nc2ccc(F)cc2nc1-c1cc2nc(N3CC[C@@H](F)C3)cc(NCC(C)(C)O)n2n1` [MT-3014, reference compound], which “effect of blocker on striatal radioactivity of [^11C]MTP38” value (PDE7 [1]; [^11C]MTP38 2 nM, unlabeled MTP38 10 μM, MTP-X 4 μM, MT-3014 40 nM) is on record?
Its value is “did not change the radioligand binding”.

For `O=C1Nc2c(Cl)ccc(OCC[18F])c2C2(CCCCC2)N1` [[^18F]MICA-003], which in vivo metabolism (PDE7 [6]) is on record?
The in vivo metabolism was “rapid metabolic conversion to a brain-entering radiomolecule”.
